Several values for one entry are separate records, joined by “and”; a condition that tells them apart may be missing. Equal entries are not always repeated. Entries after “also recorded” stand apart in the source; their conditions may differ.
Key:
[1] = system: menopausal person suffering from stress incontinence; assay: 24 hour pad test in a menopausal person with stress incontinence; assay type: in vivo, human; details: single dose of 3.75 mg; 2 weeks after treatment; before treatment 10 to 130 ml daily
Protocol: A second menopausal person, suffering from stress incontinence for at least 6 years, was treated with a single dose of 3.75 mg of leuprolide acetate. 24 hour pad tests conducted prior to treatment with the drug indicated they lost between 10 and 130 ml of urine on a daily basis due to their incontinence.

[2] = system: bitches suffering from urinary incontinence after spaying; assay: GnRH analogue slow release implant in bitches with urinary incontinence after spaying; assay type: in vivo, dog; details: for Side effects: dash = none
Protocol: Additionally, for a limited period the dogs were treated with phenylpropanolamine in a dosage of 1.5 mg/kg BW tid orally.
After discontinuation of the shortacting phenylpropanolamine 8 bitches remained continent. Their continence was therefore achieved solely by the treatment with the composition as described in the present invention. Seven out of fifteen dogs seemed to be much happier and in none of the dogs did the general condition deteriorate. […] The respective results are shown in more detail in table 1.

[3] = system: client owned dogs suffering from urinary incontinence; assay: double-blind, placebo-control study of long-acting GnRH analogue in incontinent dogs; assay type: in vivo, dog
Protocol: In a second ongoing study, 16 client owned dogs suffering from urinary incontinence were enrolled in a double-blind, placebo-control study. In the initial phase of the study, dogs were randomly assigned to treatment with a long-acting GnRH analogue (leuprolide acetate) or placebo (dog owners and the investigators were blinded to treatment) along with a short course of therapy with phenylpropanolamine. 5 weeks after treatment with drug or placebo, dogs were evaluated and, if not fully continent, treated with a long-acting GnRH analogue (leuprolide acetate) in an open label phase of the study. To date only 1 of 10 dogs treated with placebo became continent vs. […] treated with drug during the blinded portion of the study. Overall, the results generated thus far indicate […] dogs treated with the long-acting GnRH analogue became continent and […] improved after discontinuation of the short acting phenylpropanolamine. Only 1 dog of 15 treated with the GnRH analogue was considered not to have improved following treatment with the drug.

[4] = system: cocker spaniel bitches showing excessive growth of the undercoat due to spaying; assay: coat quality in spayed cocker spaniel bitches with excessive growth of the undercoat; assay type: in vivo, dog; details: 5 mg slow release s.c. implant
Protocol: Two cocker spaniel bitches belonging to the same owner were showing excessive growth of the undercoat due to spaying. […] Both dogs were first clinically examined and thereafter a GnRH analogue (Deslorelin) in a dosage of 5 mg, in slow release form, was subcutaneously implanted between the shoulder blades.

[5] = system: perimenopausal person with urge incontinence and hotflushes; assay: treatment of a perimenopausal person with urge incontinence and hotflushes; assay type: in vivo, human; details: 3.75 mg; one person
[6] = 11.25 mg slow release s.c. implant, with PPA

CCNC(=O)[C@@H]1CCCN1C(=O)[C@H](CCCNC(=N)N)NC(=O)[C@H](CC(C)C)NC(=O)[C@@H](CC(C)C)NC(=O)[C@H](Cc1ccc(O)cc1)NC(=O)[C@H](CO)NC(=O)[C@H](Cc1c[nH]c2ccccc12)NC(=O)[C@H](Cc1c[nH]cn1)NC(=O)[C@@H]1CCC(=O)N1 [Leuprorelinacetate, Leuprolid acetate]
daily urine loss (pad test) [1]: 1 mL
Duration of effect after treatment [2, 6]: >64 days
Effect on incontinence [2, 6]: 100%
Duration of effect after treatment ([2]; 11.25 mg slow release s.c. implant, without PPA): 0 days
Duration of effect after treatment ([2]; 11.25 mg slow release s.c. implant, without PPA, listed as Leuprorelin acetate): >14 days
dogs that became continent ([3]; blinded portion, 5 weeks after treatment, with short course of phenylpropanolamine, placebo 1 of 10): 3 to 8 dogs
dogs considered not to have improved ([3]; overall, of 15 dogs treated): 1 dog
dogs that became continent ([3]; overall, of 15 dogs treated, after discontinuation of phenylpropanolamine): 6 dogs
dogs that improved ([3]; overall, of the remaining dogs, after discontinuation of phenylpropanolamine): 9 dogs

Buserelin acetate [Buserelinacetate]
Side effects ([2]; 6.3 mg slow release s.c. implant): agile, more
Duration of effect after treatment ([2]; 6.3 mg slow release s.c. implant, without PPA): 44 days and 83 days

Deslorelin acetate [Deslorelinacetate]
coat quality ([4]; 5 weeks after the injection, both dogs): obvious amelioration of the coat quality
signs of baby coat ([4]; 21 weeks after injection): no signes of “baby coat” were apparent anymore
Side effects ([2]; 6 mg slow release s.c. implant): agile, more; also recorded: More playfull
Effect on incontinence ([2]; 6 mg slow release s.c. implant, with PPA (phenylpropanolamine)): 100%
Side effects ([2]; 12 mg slow release s.c. implant): More self-; also recorded: More tolerant; also recorded: less aggres-
Effect on incontinence ([2]; 12 mg slow release s.c. implant, with PPA): 80% and 100%

Triptorelin acetate [Triptorelinacetate]
period of improvement of both symptoms [5]: about 4 weeks
urge incontinence and hotflushes, reported change [5]: improved considerably
Effect on incontinence ([2]; 3.75 mg slow release s.c. implant, 36 kg bitch, dose too low): Not effec-
Duration of effect after treatment ([2]; 3.75 mg slow release s.c. implant, dose too low): 0

Reference: patent publication US20090246209A1, “GNRH ANALOGUES FOR TREATMENT OF URINARY INCONTINENCE” (priority 2000, published 2009)
